Data on twelve compounds can be found in ChEMBL document CHEMBL3351649, “A new goniothalamin N-acylated aza-derivative strongly downregulates mediators of signaling transduction associated with pancreatic cancer aggressiveness” (Eur J Med Chem, 2014).

Data set [1] in a line: (§1) Cytotoxicity against human PANC1 cells assessed as reduction in cell viability after 24 hrs by MTT reduction assay. It is filed as functional, cell-based. The settings on record: PANC-1, 24 h. A general note: Tetrazolium assays rely on reduction of a dye to a coloured formazan, in cell work by metabolically active cells.
Data set [2] relates to PANC-1. Described as §1. The class given is functional, cell-based.
A further data set relates to HaCaT. In words: Cytotoxicity against human HaCaT cells assessed as reduction in cell viability after 24 hrs by MTT reduction assay. It is filed as cell-based.
The nature of data set [3]: Selectivity ratio of IC50 for human HaCaT cells to IC50 for human PANC1 cells. It is filed as ADME, cell-based. The settings on record: HaCaT cells versus PANC1 cells, read-out: Ratio IC50.
Data set [4] concerns PANC-1. Put plainly: Cytoprotective activity in 1 hr GSH-pretreated human PANC1 cells assessed as increase in cell viability at 10 to 100 uM after 24 hrs by MTT reduction assay. The class given is functional, cell-based.
Data set [5] is described as follows: Antiproliferative activity against human PANC1 cells assessed as reduction in colonies at 15 uM after 15 days by colony assay. The class given is functional, PANC-1. Set-up: scale not given: the % may be the effect or the level left.
The nature of data set [6]: Antiproliferative activity against human PANC1 cells assessed as reduction in colonies at 30 uM after 15 days by colony assay. The class given is functional, PANC-1. Set-up: scale not given: the % may be the effect or the level left.
Data set [7] can be described thus: Antiproliferative activity against human PANC1 cells assessed as reduction in colonies after 15 days by colony assay. It is filed as functional, cell-based. Particulars: PANC-1, 360 h.
The subject of data set [8] is PANC-1. In words: Reduction in cyclin D1 protein level in human PANC1 cells at 30 to 60 uM after 24 hrs by Western blot analysis. It is filed as functional, cell-based. Background: In western blotting, separated proteins are transferred to a membrane and probed.
Data set [9] has as its system PANC-1. In words: Reduction in c-Myc protein level in human PANC1 cells at 30 to 60 uM after 24 hrs by Western blot analysis. It is filed as functional, cell-based.
The test system of data set [10] is PANC-1. Put plainly: Reduction in p-RB at Ser795 protein level in human PANC1 cells at 30 to 60 uM after 24 hrs by Western blot analysis. The class given is functional, cell-based.
Data set [11] has as its system PANC-1. Put plainly: Reduction in AXL protein level in human PANC1 cells at 30 to 60 uM after 24 hrs by Western blot analysis. It is filed as functional, cell-based.
Data set [12] addresses Tyrosine-protein kinase receptor UFO (Homo sapiens) (UniProt P30530). Put plainly: Effect on AXL in human PANC1 cells assessed as increase in p-ERK at Thr202/Tyr 204 protein level at 30 to 60 uM after 24 hrs by Western blot analysis. It is filed as cell-based. The settings on record: PANC-1.
Data set [13] relates to PANC-1. In words: Induction of apoptosis in human PANC1 cells assessed as increase in BAX/BCL-2 ratio at 30 to 60 uM after 24 hrs by Western blot analysis. The class given is functional, cell-based.
Data set [14] relates to PANC-1. Put plainly: Induction of apoptosis in human PANC1 cells assessed as reduction in pro-caspase-3 level at 30 to 60 uM after 24 hrs by Western blot analysis. The class given is functional, cell-based.
Data set [15] concerns PANC-1. In words: Induction of apoptosis in human PANC1 cells assessed as increase in cleaved PARP-1 level at 30 to 60 uM after 24 hrs by Western blot analysis. The class given is functional, cell-based.
The test system of data set [16] is PANC-1. In words: Induction of intracellular ROS production in human PANC1 cells at 1.5 to 3 uM after 1 hr using DCFH-DA by flow cytometry. The class given is functional, cell-based. In general terms: In flow cytometry, cells or beads pass a laser one at a time.
A short description of data set [17]: Chemical reactivity under non-physiological condition at 25 mM using gluthatione as thiol nucleophile assessed as conjugate addition of GSH to compound after 24 hrs by 1H NMR spectroscopy. The class given is physicochemical. Particulars: 25000 µM.
Data set [18] deals with PANC-1. Put plainly: Cytotoxicity against human PANC1 cells assessed as reduction in cell viability at 10 to 100 uM after 24 hrs by MTT reduction assay in presence of GSH. It is filed as functional, cell-based.
A short description of data set [19]: Antiproliferative activity against human PANC1 cells assessed as reduction in colonies at 0.75 uM after 15 days by colony assay. Set-up: scale not given: the % may be the effect or the level left. It is filed as functional, PANC-1.
The nature of data set [20]: Antiproliferative activity against human PANC1 cells assessed as reduction in colonies at 1.5 uM after 15 days by colony assay. Set-up: scale not given: the % may be the effect or the level left. It is filed as functional, PANC-1.
For data set [21], the system named is PANC-1. In words: Reduction in cyclin D1 protein level in human PANC1 cells at 1.5 to 3 uM after 24 hrs by Western blot analysis. It is filed as functional, cell-based.
For data set [22], the system named is PANC-1. In words: Reduction in c-Myc protein level in human PANC1 cells at 1.5 to 3 uM after 24 hrs by Western blot analysis. The class given is functional, cell-based.
The test system of data set [23] is PANC-1. In words: Reduction in p-RB at Ser795 protein level in human PANC1 cells at 1.5 to 3 uM after 24 hrs by Western blot analysis. The class given is functional, cell-based.
In data set [24] the test system is PANC-1. Put plainly: Reduction in AXL protein level in human PANC1 cells at 1.5 to 3 uM after 24 hrs by Western blot analysis. The class given is functional, cell-based.
Data set [25] concerns the target Tyrosine-protein kinase receptor UFO (Homo sapiens) (UniProt P30530). Put plainly: Inhibition of AXL in human PANC1 cells assessed as inhibition of ERK phosphorylation at Thr202/Tyr 204 at 1.5 to 3 uM after 24 hrs by Western blot analysis. The class given is cell-based. Particulars: PANC-1.
For data set [26], the system named is PANC-1. In words: Induction of apoptosis in human PANC1 cells assessed as increase in BAX/BCL-2 ratio at 1.5 to 3 uM after 24 hrs by Western blot analysis. The class given is functional, cell-based.
Data set [27] deals with PANC-1. Put plainly: Induction of apoptosis in human PANC1 cells assessed as reduction in pro-caspase-3 level at 1.5 to 3 uM after 24 hrs by Western blot analysis. The class given is functional, cell-based.
The subject of data set [28] is PANC-1. Put plainly: Induction of apoptosis in human PANC1 cells assessed as increase in cleaved PARP-1 level at 1.5 to 3 uM after 24 hrs by Western blot analysis. It is filed as functional, cell-based.
Data set [29] has as its system PANC-1. In words: Induction of intracellular ROS production in human PANC1 cells at 25 to 100 uM after 1 hr using DCFH-DA by flow cytometry. It is filed as functional, cell-based.
In data set [30] the target is Tyrosine-protein kinase receptor UFO (Homo sapiens) (UniProt P30530). In words: Inhibition of AXL in human PANC1 cells assessed as reduction in HIF-1alpha expression at 1.5 to 3 uM after 24 hrs by Western blot analysis. The class given is cell-based. The settings on record: PANC-1.
The target is the same in data set [31]. In words: Inhibition of AXL in human PANC1 cells assessed as reduction in VEGF level at 1.5 to 3 uM after 24 hrs by Western blot analysis. The class given is cell-based. The settings on record: PANC-1.

Active and inactive are the calls of the source. The calls are words filed in the database; no cut-off is given here.

Tyrosine-protein kinase receptor UFO (Homo sapiens), sequence (P30530 whole entry): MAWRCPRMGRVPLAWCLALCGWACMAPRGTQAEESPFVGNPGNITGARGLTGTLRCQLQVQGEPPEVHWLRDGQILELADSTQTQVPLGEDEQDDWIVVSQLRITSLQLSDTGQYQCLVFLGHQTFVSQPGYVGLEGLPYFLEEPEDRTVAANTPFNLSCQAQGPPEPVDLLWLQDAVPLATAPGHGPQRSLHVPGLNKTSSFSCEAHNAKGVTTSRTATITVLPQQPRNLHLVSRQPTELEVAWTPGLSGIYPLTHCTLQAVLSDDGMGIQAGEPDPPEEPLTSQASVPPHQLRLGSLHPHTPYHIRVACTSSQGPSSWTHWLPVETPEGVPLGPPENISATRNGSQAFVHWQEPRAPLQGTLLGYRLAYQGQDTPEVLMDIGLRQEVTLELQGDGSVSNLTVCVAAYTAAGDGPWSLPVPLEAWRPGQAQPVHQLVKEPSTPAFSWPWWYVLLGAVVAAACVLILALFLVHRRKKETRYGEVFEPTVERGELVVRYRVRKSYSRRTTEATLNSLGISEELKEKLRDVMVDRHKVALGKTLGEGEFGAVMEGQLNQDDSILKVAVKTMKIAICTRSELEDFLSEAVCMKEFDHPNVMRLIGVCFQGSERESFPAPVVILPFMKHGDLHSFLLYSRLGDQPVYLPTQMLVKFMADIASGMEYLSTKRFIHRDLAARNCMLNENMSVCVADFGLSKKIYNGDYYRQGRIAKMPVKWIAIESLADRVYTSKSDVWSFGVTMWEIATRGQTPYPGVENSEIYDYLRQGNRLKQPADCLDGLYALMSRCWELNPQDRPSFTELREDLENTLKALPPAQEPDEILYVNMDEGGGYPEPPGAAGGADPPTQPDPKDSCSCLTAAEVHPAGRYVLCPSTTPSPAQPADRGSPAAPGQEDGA

For `O=C1C=CCC(/C=C/c2ccccc2)N1C(=O)/C=C/c1ccccc1` (configuration not stated), the IC50 in data set [1] was 16.3 µM.

For `O=C1C=CC[C@H](/C=C/c2ccccc2)O1` [GONIOTHALAMIN], the results for the IC50 (in [1]; with HaCaT; in data set [7]) were 65 µM, 28.6 µM and 65 µM, respectively. The Activity entry with PANC-1 [2] was “Dose-dependent effect”; in data set [5], 50%; in data set [6], 70%; in data set [17], “Active”. In addition, in data set [3], the selectivity ratio worked out at 0.44. The outcome (in the data set on PANC-1 [4]; with PANC-1 [8]; in the data set on PANC-1 [10]; in the data set on PANC-1 [11]; in data set [12]; in the data set on PANC-1 [13]) was Active. Also, the outcome in the data set with PANC-1 [14], in the data set with PANC-1 [15] and with PANC-1 [16] was Active. Moreover, in the data set with PANC-1 [9], the outcome was inactive.

With `CC(=O)N1C(=O)C=CCC1/C=C/c1ccccc1` (configuration not stated), the IC50 in data set [1] was 42.3 µM. In addition, the Activity entry in the data set on PANC-1 [2] is “Dose-dependent effect”.

With `O=C1C=CCC(/C=C/c2ccccc2)N1C(=O)CCc1ccc(O)c(O)c1` (configuration not stated), in [1], the IC50 came to 6.8 µM.

For the compound `COc1cc(/C=C/C(=O)N2C(=O)C=CCC2/C=C/c2ccccc2)ccc1O` (configuration not stated), in data set [1], the IC50 stood at 15.6 µM.

Take `C=CC(=O)N1C(=O)C=CCC1/C=C/c1ccccc1` (configuration not stated): the IC50 in data set [1] was determined as 8.1 µM.

As to `COC(=O)N1C(=O)C=CCC1/C=C/c1ccccc1` (configuration not stated), the 50% inhibitory concentration (IC50) in [1] is 53.7 µM. Further, the Activity entry in the data set on PANC-1 [2] was “Dose-dependent effect”.

Take `COc1cc(/C=C/C(=O)N2CCC=CC2=O)cc(OC)c1OC` [PIPLARTINE]: the IC50 in data set [1] is 3.2 µM; in the data set with HaCaT it was 16 µM. Besides, in data set [3], the selectivity ratio turned out to be 5.

`O=C1C=CCC(/C=C/c2ccccc2)N1` (configuration not stated): the IC50 in [1] was greater than 100 µM. For the same compound, in data set [17], the Activity entry is “Not Active”.

As for `COc1cc(/C=C/C(=O)N2C(=O)C=CCC2/C=C/c2ccccc2)cc(OC)c1OC` (configuration not stated), the IC50 is 2.7 µM in [1], 8.5 µM with HaCaT and 2.7 µM in data set [7]. In data set [3], the selectivity ratio came out at 3.14. Besides, the Activity entry was “Dose-dependent effect” with PANC-1 [18], 40% in data set [19], 90% in [20] and “Active” in data set [17]. For the same compound, the result in the data set with PANC-1 [21], in the data set on PANC-1 [22], in the data set on PANC-1 [23], in the data set with PANC-1 [24], in the data set with PANC-1 [26] and in the data set with PANC-1 [27] was Active. In addition, the outcome in the data set with PANC-1 [28] and with PANC-1 [29] was Active. In addition, the inhibition entry in data set [25], in data set [30] and in data set [31] was “Active” in each case.

As for `O=C1C=CCC(/C=C/c2ccccc2)N1C(=O)/C=C/c1ccc(O)c(O)c1` (configuration not stated), in data set [1], the IC50 was found to be 5.7 µM.

Consider `C/C=C/C(=O)N1C(=O)C=CCC1/C=C/c1ccccc1` (configuration not stated), for which, in data set [1], the IC50 turned out to be 4.2 µM.

Usually IC50 stands for the concentration that gives 50% inhibition.
